Measurements as given in patent US20030087830A1, “Low molecular weight components of cartilage, complexes of metals with amino acids, DI-peptides and analogs thereof; processes for preparation and therapeutic uses thereof” (priority 2001, published 2003).
Values belong to the compound of their own block, whether it stands above or below them. Residues, ends and D or L forms follow the SMILES beside them.

Columns and labels:
[1] = tested on: blood vessel formation in the vitelline membrane of chick embryo; experiment: Embryonic Vascularization Test (EVT); format: in vivo; conditions: for EVT activity (in words): in vivo
Description: The Embryonic Vascularization Test (EVT) was performed to determine the ability of test samples to inhibit the formation of new blood vessels (antiangiogenic activity).
The normal development of a chick embryo involves the formation of an external vascular system located in the vitelline membrane which carries nutrients from the vitellus (yolk) to the developing embryo. When placed onto the vitelline membrane, antiangiogenic substances can inhibit the blood vessel formation that occurs in the vitelline membrane. Briefly, methylcellulose discs (an inert solid and transparent matrix) containing different test samples were placed on the external border of the vascular perimeter of the vitelline membrane, where the angiogenic process occurs. Vascularization was assessed 24 hours after disc deposition, and results were expressed as the percent of embryos in which blood vessel formation was affected. The blood vessel formation was considered affected when its growing path was either deviated, or diminished or when there was no growth observed beyond the disc as compared to the negative control. The results are expressed as 0, +, and ++ where 0 is for a lower response than 25 percent of the eggs; + is for a response between 25 and 50 percent; and ++ is for an antiangiogenic response observed in more than 50 percent of the eggs.
(§1) According to the endothelial cell proliferation assay, the relative effectiveness of two compounds is compared by reference to the EC50 thereof. The EC50 is the concentration of compound at which the number of endothelial cells is reduced by 50% as compared to control. The efficacy of the test samples in EVT is established by the percent of eggs with altered angiogenesis at a given inhibitor dose of 0.6 mg of copper equivalent (see FIG. 6 for examples). A comparison of the antiangiogenic activity of the compounds of the present invention with divalent metal salts (CuCl2, MgCl2, ZnCl2, CoCl2) and uncoupled alpha-amino acids, alpha-imino acids, dipeptides, and nitrogenated molecules comprising a carboxylic acid group, such as creatine, is provided to illustrate that the formation of the amino acid-copper complex gives rise to complexes having antiangiogenic activity.

[2] = tested on: Endothelial cells (HUVEC, BAEC); experiment: Endothelial cell proliferation; format: cell-based, human / bovine; conditions: for EC50: 48 hours, copper equivalent, NA = less than 50% at 1.25 mM copper equivalent, read-out: EC proliferation (EC50 mM)
Description: (§2) Endothelial and tumor cell proliferation assays were performed to determine the ability of test samples to inhibit endothelial cell proliferation (antiangiogenic activity), normal cell proliferation,and tumor cell proliferation.
(§3) Endothelial cells (Human umbilical vein endothelial cells (HUVEC), bovine aortic endothelial cells (BAEC)), skeletal muscle cells, human dermal fibroblasts (all from Clonetics, Walkersville, Md.) were respectively maintained in EBM-2, MDEM, SKGM and FGFM-2 complete media according to manufacturer's instructions. Tumor rat glioblastoma cell line (C6) was maintained in DMEM (Sigma, Oaksville, Ontario) supplemented with 10% fetal calf serum (FCS) and antibiotics in 5% CO2. Briefly, cells seeded in 96-well sterile tissue culture dishes were treated with increasing concentrations of different test samples for a period of 48 hours at 37° C. Cell number was then evaluated by a calorimetric assay using the cell proliferation reagent tetrazolium salt and the fluorimetric assay using DNA dye (Hoescht) according to the procedure established by the manufacturer (Boehringer Mannhein). The conversion of these tetrazolium salts into formazan occurs only in metabolically active cells. The percentage of cell inhibition was determined by comparison to untreated cells.
as §1

human dermal fibroblasts = experiment: Fibroblast proliferation; format: cell-based; conditions: 48 hours; free amino acids and Glu-Trp 2.5 mM, CuCl2 1.25 mM
Description: as §2, §3

Endothelial cells [3] = experiment: Endothelial cell migration assay (VEGF, modified Boyden chamber); format: cell-based; conditions: for Cell Migration (% inhibition): copper complexes, concentration not given, VEGF, 4.5 hours
Description: The endothelial cell migration assay was performed to determine the ability of test samples to inhibit the chemotaxic activity of vascular endothelial growth factor (VEGF;R/D System, MN) using a modified Boyden chamber (Transwell™, Corning/Costar). Briefly, polyvinylidene difluoride filters (PVDF) were coated with Pronectin F (Biosources, CA), a constituent of basement membrane barrier. Boyden chambers were assembled by adding VEGF to the culture media in the lower chamber (chemoattractant). Endothelial cells suspended in cultured media in the presence or the absence of the test samples were added to the upper chamber. The chambers were then incubated for a period of 4.5 hours at 37° C. At the end of the incubation period, the cells from both side of the PVDF membrane were fixed with 3.7% formaldehyde. Cells from the upper surface of the membrane were mechanically removed, and the cells remaining on the underside of the membrane were stained with crystal violet (0.5%; Sigma). Cells were then carefully rinsed and the dye fixed to the cells was quantified with a microplate reader ([…]) after its solubilization with a solution of 50% citric acid (0.1M) in water and 50% ethanol.

Endothelial cells [4] = experiment: Endothelial cell tubule formation assay (tubulogenesis); format: cell-based; design: key to Tubulogenesis: 0: Numerous capillary-like tube forming pentagonal network; +: Decrease of capillary-like tubes; ++: Dramatic decrease of capillary-like tubes; +++: Absence of capillary-like tubes
Description: The endothelial cell tubule formation assay is a semi-quantitative assay that was performed to determine the ability of test samples to inhibit this multi-step process, which involves cell adhesion, migration, differentiation and growth, using a commercial kit (Chemicon). Briefly, endothelial cells were seeded on solid gel of Ecmatrix™ (Chemicon), basement proteins prepared from the Engelbreth Holm-Swarm (EHS) mouse tumor in microplate in a E-99 media (Sigma) supplemented with 5% FBS and VEGF (50 ng/ml) in the presence or absence of the test sample. Cells were incubated for a period of 24 hours at 37° C. Pictures were taken on the entire tissue culture dish using a binocular microscope for further evaluation.

[5] = tested on: bFGF-stimulated blood vessel formation in Matrigel; experiment: Matrigel in vivo angiogenesis assay; design: species or system C57B1/6 mice; conditions: for Matrigel in vivo % inhibition: intra-peritoneal daily 10 days
Description: The Matrigel™ in vivo assay was performed to determine the ability of test samples to inhibit blood vessel formation (antiangiogenic activity) and to establish their bioavailability in vivo.
Briefly, liquid Matrigel™ (Becton Dickinson, Bedford, Mass.) was maintained at 4° C. and mixed thoroughly for at least 3 hours with 1,500 ng/ml basic fibroblast growth factor (bFGF) (R&D Systems, Minneapolis, Minn.) used as the primary angiogenic stimulus. The mixture (0.5 ml) was injected subcutaneously into the ventral midline of C57B1/6 mice, and treatment with different test samples or saline solution was initiated the same day. Additional animals were also injected with Matrigel™ containing no bFGF to serve as baseline controls. The animals were treated daily for a 10 day period (intra-peritonealy, 0.2 ml of each dose). At day 11, animals were injected with FITC-dextran 20 min prior to euthanizing treated mice. Matrigel™ gels were removed along with underlying peritoneum and prepared for FITC-dextran detection by fluorimetry. The concentration of FITC-dextran in the gels was calculated from a known concentration of FITC-dextran using a standard curve. The FITC-dextran content of the gels from compound-treated animals and controls was expressed as a percent of the positive bFGF-treated controls after the baseline control of FITC-dextran levels were subtracted from all groups.

[6] = Affinity of the amino acid with copper; format: physicochemical
[7] = tested on: Lewis lung carcinoma clone M27; experiment: Lewis Lung Carcinoma metastatic mouse model (LLC); format: in vivo, C57BL/10 female mice; conditions: for Antimetastatic activity (% inhibition) (at 2.5 mg/kg of Cu-complex): intraperitoneal daily for two weeks, lung surface metastases
Source text: The Lewis Lung Carcinoma mouse model (LLC) was used to determine the ability of different test samples to inhibit the formation of metastases within the lung. The Lewis lung carcinoma clone M27, with a high metastatic potential to the lung, was established by Dr P. Brodt (Brodt P, Characterization of two highly metastatic variants of Lewis lung carcinoma with different organ specificities. Cancer Res., 46: 2442, 1986). This model is well established and is known for its predictive correlation between in vitro and in vivo activity. Briefly, LLC cells were transplanted subcutaneously in the axillary region of the right flank of C57BL/10 female mice (Charles River Inc.) When the primary tumor reached a size of 0.5-1.0 cm^3 (day 10 post-inoculation), the tumor was carefully separated from the surrounding healthy tissues. Treatment with different test samples started the day following tumor removal (day 11 post-inoculation). Saline or different test samples were administered daily for two weeks by intraperitoneal injection (0.2 ml of each dose). As previous experiments had shown that a period of approximately two weeks after removal of the primary tumor was sufficient to obtain an average of 30 to 50 nodules on the lung surface, animals were sacrificed in a CO2 chamber two weeks later. Following autopsy, both lungs were removed, weighed and fixed in 10% Bouin's fixative. Lung surface metastases were counted using a stereomicroscope (4×).

[8] = tested on: Striated muscle cells (skeletal muscle cells); experiment: Striated muscle cell proliferation; format: cell-based; conditions: 48 hours; free amino acids and Glu-Trp 2.5 mM, CuCl2 1.25 mM
Description: as §2, §3

[9] = activity at 0.6 mg equivalent Copper
[10] = copper complexes, concentration not given, VEGF 50 ng/ml, 24 hours

- Affinity of the AA with Cooper [6]: 15.4
Compound: C[C@@H](O)[C@H](N)C(=O)[O-].C[C@@H](O)[C@H](N)C(=O)[O-].[Cu+2] [Compound 5, L-Thr:Cu:L-Thr]
- EVT (% of inhibition) [1, 9]: ++ (++ more than 50% of inhibition)
- EC50 [2]: 0.3 mM
- EC50 (human dermal fibroblasts): 1.34 mM
- Cell migration activity (in words) (Endothelial cells [3]): important activity
- Cell Migration (% inhibition) (Endothelial cells [3]): 90%
- Tubulogenesis activity (in words) (Endothelial cells [4]): important activity
- Tubulogenesis (Endothelial cells [4]; [10]): ++
- Matrigel in vivo % inhibition ([5]; 1.4 mg/Kg equivalent copper): 47.7%
- Matrigel in vivo % inhibition ([5]; 7.0 mg/Kg equivalent copper): 59.4%

- Affinity of the AA with Cooper [6]: 19.4
Compound: N[C@@H](Cc1c[nH]cn1)C(=O)[O-].N[C@@H](Cc1c[nH]cn1)C(=O)[O-].[Cu+2] [Compound 10, L-His:Cu:L-His]
- EVT (% of inhibition) [1, 9]: 0 (0 non-active (less than 25% of inhibition))
- EVT activity (in words) [1]: inactive
- Endothelial cell proliferation activity (in words) [2]: inactive
- EC50 [2]: 0.9 mM
- Cell migration activity (in words) (Endothelial cells [3]): did not show any activity
- Cell Migration (% inhibition) (Endothelial cells [3]): 65%
- Tubulogenesis activity (in words) (Endothelial cells [4]): did not show any activity
- Tubulogenesis (Endothelial cells [4]; [10]): 0
- Matrigel in vivo % inhibition ([5]; 7.0 mg/Kg equivalent copper): 63.4%
- Matrigel in vivo antiangiogenic activity (in words) ([5]; mouse, in vivo): more active than compound 6
- Antimetastatic activity (% inhibition) (at 2.5 mg/kg of Cu-complex) [7]: 63.0%

Compound: N[C@@H](CCC(=O)O)C(=O)N[C@@H](Cc1c[nH]c2ccccc12)C(=O)O [Free Glu-Trp, glutamyl-tryptophane, reference compound] (H-Glu-Trp-OH)
- EVT (% of inhibition) [1, 9]: 0 (0 non-active (less than 25% of inhibition))
- EVT activity (in words) [1]: almost inactive
- Endothelial cell proliferation activity (in words) [2]: almost inactive
- Cell migration activity (in words) (Endothelial cells [3]): did not show any activity
- inhibition at 2500 µM (Endothelial cells [3]; Endothelial cell, 2.5 mM free (not complexed) ligand): 10%
- Tubulogenesis activity (in words) (Endothelial cells [4]): did not show any activity
- Tubulogenesis (Endothelial cells [4]; 2.5 mM free (not complexed) ligand): 0
- Antimetastatic activity (% inhibition) (at 2.5 mg/kg of Cu-complex) [7]: 22.8%

Compound: (Glu—Trp)2-Cu [Compound 33]
- EVT (% of inhibition) ([1]; 0.6 mg copper equivalent, percent of embryos with affected blood vessel formation, 24 hours after disc deposition): 60%
- EVT (% of inhibition) [1, 9]: ++ (++ more than 50% of inhibition)
- EC50 [2]: 0.23 mM
- EC50 (human dermal fibroblasts): 0.66 mM
- EC50 [8]: 0.47 mM
- Cell migration activity (in words) (Endothelial cells [3]): important activity
- Cell Migration (% inhibition) (Endothelial cells [3]): 96%
- Tubulogenesis activity (in words) (Endothelial cells [4]): important activity
- Tubulogenesis (Endothelial cells [4]; [10]): +++
- Antimetastatic activity (% inhibition) (at 2.5 mg/kg of Cu-complex) [7]: 44%
- Anti-metastatic activity in vivo (in words) ([7]; mouse, in vivo): more active than the free di-peptide
